Source: US7262202B2, “Inhibitors of cyclin dependent kinases as anti-cancer agent” (Cyclacel Limited, priority 2001, dated 2007)
Like-named read-outs stand apart in the source and are kept apart here.

How the values were obtained:
[1] = target: T1, CDK2/cyclin E (Homo sapiens, UniProt P24941); experiment: CDK2/Cyclin E kinase assay (GST-Rb phosphorylation, radiolabelled ATP); assay type: biochemical;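 further: enzyme was His-tagged CDK2/cyclin E co-expressed in baculovirus-infected Sf9 insect cells and purified over a metal-chelate column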
T1 construct: His; made in house; host or cells: Sf9 insect cells (baculovirus)

[2] = tested on: human tumour cell lines; experiment: cell-based anti-proliferative assays
Text: These assays, including methods for their performance, are described in more detail in Example 3. Using such cell line and enzymes assays it may be determined whether a compound is anti-proliferative in the context of the present invention.
Selected compounds from the above examples were subjected to a standard cellular proliferation assay using a range of different human tumour cell lines. Standard 72-h MTT (thiazolyl blue; 3-[4,5-dimethylthiazol-2-yl]-2,5-diphenyltetrazolium bromide) assays were performed (Haselsberger, K.; Peterson, D. C.; Thomas, D. G.; Darling, J. L. Anti Cancer Drugs 1996, 7, 331–8; Loveland, B. E.; Johns, T. G.; Mackay, I. R.; Vaillant, F.; Wang, Z. X.; Hertzog, P. J. Biochemistry International 1992, 27, 501–10). Human tumour cell lines were obtained from the ATCC (American Type Culture Collection, 10801 University Boulevard, Manessas, Va. 20110-2209, USA).

[3] = tested on: A549; experiment: 72-h MTT cellular proliferation assay, A549; assay type: cell-based; conditions: human tumour cell line A549, 72-h MTT; read-out: Cytotoxicity (IC50, μM) A549
Text: (§1) Selected compounds from the above examples were subjected to a standard cellular proliferation assay using a range of different human tumour cell lines.

[4] = tested on: Saos-2; experiment: 72-h MTT cellular proliferation assay, Saos-2; assay type: cell-based; conditions: human tumour cell line Saos-2, 72-h MTT; read-out: Cytotoxicity (IC50, μM) Saos-2
Text: as §1

[5] = bound stated, (±0.05), read-out: IC50 for cdk2/cyclinE

Row | SMILES | IC50 [1, 5] [µM] | IC50 ([1]; read-out: CDK2/cyclin E (IC50)) [µM] | anti-proliferative activity in cell-based assays [2] | melting point [°C] | other results
1 | Cc1c[nH]c(C)c1-c1ccnc(Nc2ccc(F)cc2)n1 [Compound 1, [4-(2,4-Dimethyl-1H-pyrrol-3-yl)-pyrimidin-2-yl]-(4-fluoro-phenyl)-amine] | < 1 | 1 ± 0.7 |  |  | 
2 | Cc1c[nH]c(C)c1-c1ccnc(Nc2cccc([N+](=O)[O-])c2)n1 [Compound 2] |  |  | particularly effective anti-proliferative agents |  | 
3 | Cc1c[nH]c(C)c1-c1ccnc(Nc2ccc(I)cc2)n1 [Compound 3, [4-(2,4-Dimethyl-1H-pyrrol-3-yl)-pyrimidin-2-yl]-(4-iodo-phenyl)-amine] | < 0.5 | 0.5 |  |  | 
4 | Cc1c[nH]c(C)c1-c1ccnc(Nc2ccc(F)c(F)c2)n1 [Compound 4, (3,4-Difluoro-phenyl)-[4-(2,4-dimethyl-1H-pyrrol-3-yl)-pyrimidin-2-yl]-amine] | < 5 | 1.3 ± 0.4 |  |  | 
5 | Cc1c[nH]c(C)c1-c1ccnc(Nc2ccc(Cl)cc2)n1 [Compound 5, (4-Chloro-phenyl)-[4-(2,4-dimethyl-1H-pyrrol-3-yl)-pyrimidin-2-yl]-amine] | < 5 | 1.7 |  | 219 to 223 | 
6 | Cc1c[nH]c(C)c1-c1ccnc(Nc2cc(F)cc(F)c2)n1 [Compound 6, (3,5-Difluoro-phenyl)-[4-(2,4-dimethyl-1H-pyrrol-3-yl)-pyrimidin-2-yl]-amine] | < 5 | 1.3 |  | 153.3 to 156.8 | 
7 | Cc1c[nH]c(C)c1-c1ccnc(Nc2ccc(O)cc2)n1 [Compound 7, 4-[4-(2,4-Dimethyl-1H-pyrrol-3-yl)-pyrimidin-2-ylamino]-phenol] | < 5 | 2.9 |  | 189.5 to 193.4 | 
8 | Cc1c[nH]c(C)c1-c1ccnc(Nc2cccc(O)c2)n1 [Compound 8, 3-[4-(2,4-Dimethyl-1H-pyrrol-3-yl)-pyrimidin-2-ylamino]-phenol] | < 5 | 1.4 |  | 169 to 174.6 | 
9 | Cc1c[nH]c(C)c1-c1ccnc(Nc2ccc(F)cc2F)n1 [Compound 9, (2,4-Difluoro-phenyl)-[4-(2,4-dimethyl-1H-pyrrol-3-yl)-pyrimidin-2-yl]-amine] |  |  |  | 219 to 220 | 
10 | Cc1c[nH]c(C)c1-c1ccnc(Nc2ccc(Cl)cc2Cl)n1 [Compound 10, (2,4-Dichloro-phenyl)-[4-(2,4-dimethyl-1H-pyrrol-3-yl)-pyrimidin-2-yl]-amine] |  |  |  | 158.5 to 159.7 | 
11 | Cc1c[nH]c(C)c1-c1ccnc(Nc2ccc(Cl)c(C(F)(F)F)c2)n1 [Compound 11, (4-Chloro-3-trifluoromethyl-phenyl)-[4-(2,4-dimethyl-1H-pyrrol-3-yl)-pyrimidin-2-yl]-amine] |  |  |  | 187.7 to 190.7 | 
12 | Cc1c[nH]c(C)c1-c1ccnc(Nc2cccc(C(F)(F)F)c2)n1 [Compound 13, [4-(2,4-Dimethyl-1H-pyrrol-3-yl)-pyrimidin-2-yl]-(3-trifluoromethyl-phenyl)-amine] |  |  |  | 152.7 to 154.3 | 
13 | Cc1c[nH]c(C)c1-c1ccnc(Nc2ccc(I)c(Cl)c2)n1 [Compound 16, (3-Chloro-4-iodo-phenyl)-[4-(2,4-dimethyl-1H-pyrrol-3-yl)-pyrimidin-2-yl]-amine] | < 5 | 1.52 | particularly effective anti-proliferative agents | 185 to 187.4 | IC50 [3]: 4.39 µM
14 | Cc1c[nH]c(C)c1-c1ccnc(Nc2ccc(I)c(F)c2)n1 [Compound 17, [4-(2,4-Dimethyl-1H-pyrrol-3-yl)-pyrimidin-2-yl]-(3-fluoro-4-iodo-phenyl)-amine] | < 5 | 1.73 |  | 200 to 202 | 
15 | Cc1[nH]c(C#N)c(C)c1-c1ccnc(Nc2cccc([N+](=O)[O-])c2)n1 [Compound 31, 3,5-Dimethyl-4-[2-(3-nitro-phenylamino)-pyrimidin-4-yl]-1H-pyrrole-2-carbonitrile] |  |  | particularly effective anti-proliferative agents |  | 
16 | Cc1[nH]c(C#N)c(C)c1-c1ccnc(Nc2ccc(O)cc2)n1 [Compound 33, 4-[2-(4-Hydroxy-phenylamino)-pyrimidin-4-yl]-3,5-dimethyl-1H-pyrrole-2-carbonitrile] |  |  | particularly effective anti-proliferative agents |  | 
17 | Cc1[nH]c(C#N)c(C)c1-c1ccnc(Nc2cccc(O)c2)n1 [Compound 36, 4-[2-(3-Hydroxy-phenylamino)-pyrimidin-4-yl]-3,5-dimethyl-1H-pyrrole-2-carbonitrile] | < 0.5 |  | particularly effective anti-proliferative agents |  | IC50 [4]: 0.9 µM
18 | Cc1ccc(Nc2nccc(-c3c(C)[nH]c(C#N)c3C)n2)cc1[N+](=O)[O-] [Compound 37, 3,5-Dimethyl-4-[2-(4-methyl-3-nitro-phenylamino)-pyrimidin-4-yl]-1H-pyrrole-2-carbonitrile] |  |  | particularly effective anti-proliferative agents |  | 
19 | Cc1ccc(Nc2nccc(-c3c(C)[nH]c(C#N)c3C)n2)cc1O [Compound 40, 4-[2-(3-Hydroxy-4-methyl-phenylamino)-pyrimidin-4-yl]-3,5-dimethyl-1H-pyrrole-2-carbonitrile] |  |  | particularly effective anti-proliferative agents |  | 
20 | Cc1cc(Nc2nccc(-c3c(C)[nH]c(C#N)c3C)n2)ccc1F [Compound 41, 4-[2-(4-Fluoro-3-methyl-phenylamino)-pyrimidin-4-yl]-3,5-dimethyl-1H-pyrrole-2-carbonitrile] |  |  | particularly effective anti-proliferative agents |  | 
21 | Cc1[nH]c(C(N)=O)c(C)c1-c1ccnc(Nc2ccc(F)cc2)n1 [Compound 44, 4-[2-(4-Fluoro-phenylamino)-pyrimidin-4-yl]-3,5-dimethyl-1H-pyrrole-2-carboxylic acid amide] |  |  | particularly effective anti-proliferative agents |  | 
22 | Cc1cn(C)c(C)c1-c1ccnc(Nc2ccc(F)cc2)n1 [Compound 46, (4-Fluoro-phenyl)-[4-(1,2,4-trimethyl-1H-pyrrol-3-yl)-pyrimidin-2-yl]-amine] | < 5 | 1.79 | particularly effective anti-proliferative agents |  | 
23 | Cc1[nH]c([N+](=O)[O-])c(C)c1-c1ccnc(Nc2ccc(F)cc2)n1 [Compound 47, [4-(2,4-Dimethyl-5-nitro-1H-pyrrol-3-yl)-pyrimidin-2-yl]-(4-fluoro-phenyl)-amine] |  |  | particularly effective anti-proliferative agents |  | 
24 | Cc1[nH]c(Br)c(C)c1-c1ccnc(Nc2ccc(F)cc2)n1 [Compound 50, [4-(5-Bromo-2,4-dimethyl-1H-pyrrol-3-yl)-pyrimidin-2-yl]-(4-fluoro-phenyl)-amine] | < 1 |  |  |  | 
25 | Cc1[nH]c(Cl)c(C)c1-c1ccnc(Nc2ccc(F)cc2)n1 [Compound 52, [4-(5-Chloro-2,4-dimethyl-1H-pyrrol-3-yl)-pyrimidin-2-yl]-(4-fluoro-phenyl)-amine] | < 1 |  |  |  | 
26 | Cc1[nH]c(CN2CCOCC2)c(C)c1-c1ccnc(Nc2ccc(F)cc2)n1 [Compound 55, [4-(2,4-Dimethyl-5-morpholin-4-ylmethyl-1H-pyrrol-3-yl)-pyrimidin-2-yl]-(4-fluoro-phenyl)-amine] | < 1 | 0.87 |  | 94.7 to 97.6 | 
